Columns and labels:
[1] = system: ST088 human epithelial ovarian cancer (EOC) patient-derived tumor xenografts; test: Antitumor activity of IMGN853, bevacizumab, paclitaxel and combinations in ST088 tumor model (Example 6); format: in vivo, SCID mice; settings: QWx2: IMGN853 5 mg/kg, bevacizumab 5 mg/kg, paclitaxel 10 mg/kg
Protocol: Tumor volumes were measured twice weekly in three dimensions using a caliper.

γH2AX = γH2AX immunoblot of cellular extracts, IMGN853 and carboplatin (FIG. 9C); format: cell-based; settings: carboplatin 40 μM, IMGN853 16 nM, alone or combined, 6 hours, then 18 hours drug-free medium
From the text: Cellular extracts were immunoblotted for γH2AX or actin (loading control) as indicated.

[2] = system: OV90 serous ovarian tumor xenografts; test: Antitumor activity of IMGN853 (1.25 mg/kg), paclitaxel, bevacizumab and combinations in OV90 tumor model (Example 4); format: in vivo, SCID mice; settings: single doses: IMGN853 1.25 mg/kg, paclitaxel 10 mg/kg, bevacizumab 5 mg/kg
Protocol: Mice were randomized into groups (n=8 per group) by tumor volume and subsequently dosed on Day 14 post-inoculation. All treatments consisted of single doses (1×).
Tumor volumes were measured one to two times weekly in three dimensions using a caliper. […] Body weights were measured twice per week as an index of toxicity.

[3] = system: platinum-sensitive ovarian cancer patient derived xenografts (PDXs); test: IMGN853 and carboplatin, single administration, in platinum-sensitive ovarian cancer PDX (FIG. 9D); format: in vivo, SCID mice
Protocol: Data are expressed as mean and standard error of the mean (SEM) for each time point.
To examine whether these in vitro cellular effects translated to improved efficacy in vivo, mice bearing patient-derived xenografts (PDX) obtained from an individual with EOC were treated with IMGN853 and carboplatin, both as single agents and in combination (FIG. 9D). […] Animals received a single administration of IMGN853 (2.5 mg/kg) or carboplatin (80 mg/kg), and each regimen inhibited tumor growth as monotherapy (T/C values of 43% and 20% on day 39, respectively).

IMGN853 was tested, and the antitumor activity rating [1] was “active”, the T/C ([1]; alone or combined) was 31% and the CR ([1]; responders/animals) was 0/8. The PR ([1]; responders/animals) was 0/8, the γH2AX expression (γH2AX) was “induced γH2AX expression in IGROV-1 cells and to levels higher than those seen following carboplatin exposure alone” and the TFS [2] was 0/7. For the same substance, the antitumor activity rating [2] was “active”, the T/C ([2]; alone or combined) was 37% and the CR ([2]; responders/animals) was 0/7. For the same substance, the “single agent activity, previously determined (data not shown)” value ([3]; dose not stated) was “robust single agent activity” and the T/C ([3]; single administration: IMGN853 2.5 mg/kg and/or carboplatin 80 mg/kg, day 39) was 43%.

Source: patent US10172875B2, “Therapeutic combinations comprising anti-FOLR1 immunoconjugates” (ImmunoGen, Inc., priority 2015, dated 2019)
